# Measurements reported in patent publication US20240201189A1, “FLUORESCENT PROBE FOR USE IN DETECTION OF PANCREATIC CANCER” (The University of Tokyo, priority 2021, published 2024).
# Values joined by “and” are separate entries in the source; they are usually repeats but may differ in a detail not shown here. Identical values can stand only once.
# What was measured:
# [1] = tested on: lysates prepared from tissue fragments of carcinomatous and non-carcinomatous sites (pancreatic cancer resected specimens); experiment: Primary screening: increase in FI of probes mixed with lysates of carcinomatous and non-carcinomatous tissue; format: biochemical, human; conditions: lysates from five patients; probe 1.0 μM; 60 minutes, 37° C.; FIG. 1A
# Experimental: First, according to the procedure described in Non Patent Literatures 6 to 8, each of lysates prepared from tissue fragments of carcinomatous and non-carcinomatous sites was mixed with a fluorescent probe, an increased value of fluorescence intensity was measured, and a fluorescent probe as a candidate was selected. Briefly, 5 μL of a lysate (protein concentration: 0.20 mg/dL) was added dropwise to a well of a black 384 plate in which 15 μL of a library of dipeptide-HMRG compounds (Non Patent Literature 8) was arranged. Final concentrations of the candidate probe and the lysate protein were 1.0 μM and 0.050 mg/dL, respectively.
# The fluorescence intensity (FI) of each sample was measured at 0 minutes and 60 minutes after mixing with Envision Multilabel Plate Reader (PerkinElmer, Massachusetts, USA) while performing incubation at 37° C. Excitation and emission wavelengths were set to 485 nm and 535 nm, respectively. An increase in FI was defined as follows.
# (Increase in FI)=(FI after 60 minutes)−(FI after 0 minutes)
# Probes with the top 10% difference or ratio in the increase in FI in the carcinomatous and non-carcinomatous lysates were selected as candidate probes and evaluated as follows.
# [2] = target: T1, Human recombinant DPP-IV (Homo sapiens, UniProt P27487); experiment: Target enzyme search: change in FI of probe after adding DPP-IV; format: biochemical; conditions: probe 1.0 μM; 2,000 seconds; ex/em 495 nm/525 nm; FIG. 5A
# T1 construct: purchased Sigma-Aldrich D 4943
# Experimental: (§1) It was considered that dipeptidyl peptidase 4 (DPP-IV) or a similar enzyme was a target enzyme overexpressed in pancreatic cancer tissue. First, the candidate fluorescent probe was examined whether DPP-IV or the similar enzyme was activated. Human recombinant DPP-IV (50 μL; D 4943, Sigma-Aldrich), DPP-VIII (1.0 μg; ab162872, abcam), and DPP-IX (1.0 μg; ab79621, abcam) were injected into 3.0 mL of a probe solution (1.0 μM) using F-7000 (Hitachi (Tokyo)), and a change in FI during 2,000 seconds was measured. Excitation and emission wavelengths were set to 495 and 525 nm, respectively.
# [3] = target: T2, Human recombinant DPP-IX (Homo sapiens, UniProt Q86TI2); experiment: Target enzyme search: change in FI of probe after adding DPP-IX; format: biochemical; conditions: probe 1.0 μM; 2,000 seconds; ex/em 495 nm/525 nm; FIG. 5C
# T2 construct: purchased abcam ab79621
# Experimental: as §1
# [4] = tested on: pancreatic cancer tissue in surgically resected specimen; experiment: Fluorescence imaging of cut surface of surgically resected pancreatic cancer specimens (TBR); format: cell-based, human
# Experimental: Immediately after the pancreatic cancer specimen was extracted, the pancreatic cancer specimen was cut so as to include a maximum diameter of pancreatic cancer tissue. Next, the fluorescent probe described above (4 mL, 50 μM) was directly applied to the cut surface and fluorescence imaging was performed using Maestro in Vivo imaging system as described above. The accuracy of the fluorescence imaging was evaluated by a surgeon (RT) and a pathologist (MT) with reference to histopathological findings on the same plane. In addition, a tumor/background ratio (TBR) was also calculated by measuring the increase in average FI from 1 minute to 30 minutes after probe administration in carcinomatous and non-carcinomatous sites based on macroscopic/microscopic findings of the cut surface and corresponding fluorescence images.
# T2 sequence (Q86TI2 whole entry): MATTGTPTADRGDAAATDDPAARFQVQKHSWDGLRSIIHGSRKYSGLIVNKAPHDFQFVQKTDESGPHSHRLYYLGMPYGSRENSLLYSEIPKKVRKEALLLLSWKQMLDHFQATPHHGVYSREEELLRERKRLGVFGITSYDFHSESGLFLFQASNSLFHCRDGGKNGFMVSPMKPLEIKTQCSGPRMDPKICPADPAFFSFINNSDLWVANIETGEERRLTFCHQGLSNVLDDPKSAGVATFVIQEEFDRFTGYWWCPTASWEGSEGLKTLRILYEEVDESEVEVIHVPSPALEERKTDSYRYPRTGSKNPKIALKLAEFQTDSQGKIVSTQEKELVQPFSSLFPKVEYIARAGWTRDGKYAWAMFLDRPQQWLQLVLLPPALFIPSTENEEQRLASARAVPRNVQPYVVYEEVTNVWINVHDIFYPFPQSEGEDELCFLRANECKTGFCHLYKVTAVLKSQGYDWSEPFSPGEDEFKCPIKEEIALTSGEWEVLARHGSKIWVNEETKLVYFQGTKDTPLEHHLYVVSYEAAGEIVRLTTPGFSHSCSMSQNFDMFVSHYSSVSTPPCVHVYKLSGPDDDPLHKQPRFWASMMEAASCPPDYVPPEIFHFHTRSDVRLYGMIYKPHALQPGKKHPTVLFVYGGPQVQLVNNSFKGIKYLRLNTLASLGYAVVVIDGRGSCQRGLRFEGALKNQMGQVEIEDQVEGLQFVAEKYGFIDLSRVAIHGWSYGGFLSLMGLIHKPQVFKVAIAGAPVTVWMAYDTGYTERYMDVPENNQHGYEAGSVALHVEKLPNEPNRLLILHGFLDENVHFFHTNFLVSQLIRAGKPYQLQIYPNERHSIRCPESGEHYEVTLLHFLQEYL
# T1 sequence (P27487 whole entry): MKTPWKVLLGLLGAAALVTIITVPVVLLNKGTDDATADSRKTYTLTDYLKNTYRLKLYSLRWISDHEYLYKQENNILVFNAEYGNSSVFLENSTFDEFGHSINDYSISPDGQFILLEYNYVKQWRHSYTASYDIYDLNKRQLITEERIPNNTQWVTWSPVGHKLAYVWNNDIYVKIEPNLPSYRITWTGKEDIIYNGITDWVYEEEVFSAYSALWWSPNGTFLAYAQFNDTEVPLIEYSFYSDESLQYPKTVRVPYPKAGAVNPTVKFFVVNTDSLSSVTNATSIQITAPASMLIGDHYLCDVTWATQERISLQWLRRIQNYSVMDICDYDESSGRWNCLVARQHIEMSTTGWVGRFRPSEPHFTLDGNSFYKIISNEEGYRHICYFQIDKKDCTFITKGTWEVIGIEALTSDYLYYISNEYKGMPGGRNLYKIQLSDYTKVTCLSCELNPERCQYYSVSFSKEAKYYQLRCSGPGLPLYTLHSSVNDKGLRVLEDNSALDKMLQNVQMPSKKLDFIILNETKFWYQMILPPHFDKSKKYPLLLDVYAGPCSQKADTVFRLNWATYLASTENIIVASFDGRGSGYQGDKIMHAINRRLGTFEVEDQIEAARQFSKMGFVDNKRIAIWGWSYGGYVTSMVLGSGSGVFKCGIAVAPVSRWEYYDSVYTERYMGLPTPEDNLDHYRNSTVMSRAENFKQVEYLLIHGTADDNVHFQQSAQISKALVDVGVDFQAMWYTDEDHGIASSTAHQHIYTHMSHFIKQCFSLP
structure (smiles),measurement,setting,value
CC(C)C[C@H](N)C(=O)N1CCC[C@H]1C(=O)Nc1ccc2c(c1)Oc1cc(N)ccc1C21OCc2ccccc21 (stereo partly drawn) [LP-HMRG],increase in FI in carcinomatous tissue as opposed to non-carcinomatous tissue (lysates),[1],significant increase in FI in carcinomatous tissue
Nc1ccc2c(c1)Oc1cc(NC(=O)[C@@H]3CCCN3C(=O)[C@@H](N)Cc3ccc(O)cc3)ccc1C21OCc2ccccc21 (stereo partly drawn) [YP-HMRG],increase in FI in carcinomatous tissue as opposed to non-carcinomatous tissue (lysates),[1],significant increase in FI in carcinomatous tissue
Nc1ccc2c(c1)Oc1cc(NC(=O)[C@@H]3CCCN3C(=O)[C@@H]3CCCN3)ccc1C21OCc2ccccc21 (stereo partly drawn) [PP-HMRG],increase in FI in carcinomatous tissue as opposed to non-carcinomatous tissue (lysates),[1],significant increase in FI in carcinomatous tissue
NCC(=O)N1CCC[C@H]1C(=O)Nc1ccc2c(c1)Oc1cc(N)ccc1C21OCc2ccccc21 (stereo partly drawn) [GP-HMRG],conversion of probe into fluorescent HMRG in reaction with DPP-IV,[2],converted into a highly fluorescent HMRG
same,conversion of probe into fluorescent HMRG in reaction with DPP-IX,[3],converted into a highly fluorescent HMRG
same,average TBR of the fluorescence images,"[4]; 30 minutes after spraying, eight patients","1.96 (range, 1.31 to 2.04)"
same,TBR in the connective tissue surrounding the splenic artery,"[4]; Patient No. 8, after preoperative chemotherapy, cancer invasion",2.04
same,TBR of the main tumor,"[4]; Patient No. 8, after preoperative chemotherapy, fibrosis and mucinous changes, few viable cancer cells",1.13
same,time from which increase in fluorescence signal in carcinomatous tissue was confirmed,[4]; after topical administration,1 min
same,TBR in patients with uniform fluorescence signal of carcinomatous tissue,"[4]; four of eight patients (Patient Nos. 1, 2, 4 and 5)",> 1.9
same,A TBR ratio of FI,"[4]; one value per patient (Patients 1-8), cut surface, increase in average FI from 1 to 30 minutes, probe 4 mL, 50 μM",1.98 (2×) and 1.93 and 1.47 and 1.26 and 1.13 and 3.44 and 2.06
same,increase in FI in carcinomatous tissue as opposed to non-carcinomatous tissue (lysates),[1],significant increase in FI in carcinomatous tissue
